Laboratory results from the supplement of paper PMC12463676, “Small-molecule dissolution of stress granules by redox modulation benefits ALS models” (Nature Chemical Biology, 2025).

Key:
[1] = compound: O=[As]([O-])(O)O.[K+] [potassium arsenate]; assay: thermal stability z-score vs DMSO; higher = more thermally stabilized by treatment; conditions: HeLa; arsenate concentration 1 mM
Experimental: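 Cellular thermal proteome profiling in HeLa cells treated with 1 mM arsenate for 1 h (DMSO pretreatment), heated to ten temperatures (37-66.3 °C). Soluble protein was quantified by TMT mass spectrometry relative to DMSO controls; the thermal stability score was transformed to a z-score; mean of n = 3 experiments.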

[2] = compound: NC(=O)CCCCC1CCSS1 [lipoamide]; assay: as above; conditions: HeLa, lipoamide concentration 100 µM
Experimental: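 Cellular thermal proteome profiling in HeLa cells. Cells were treated with 100 µM lipoamide for 1 h, with or without 1 mM arsenate for a further 1 h, then heated to ten temperatures (37-66.3 °C), and soluble protein was quantified by TMT mass spectrometry relative to 0.1% DMSO controls. The thermal stability score (sum of log2 fold changes minus the abundance score) was transformed to a z-score; mean of n = 3 experiments.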

[3] = arsenate co-treatment: 1 mM arsenate 1 h
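Further: each temperature applied for 3 min, abundance score taken as mean log2 fold change at the two lowest temperatures, z-score obtained by mean subtraction and division by SD.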

MRE11A (UniProt P49959)
Sequence of UniProt P49959 (P49959 whole entry): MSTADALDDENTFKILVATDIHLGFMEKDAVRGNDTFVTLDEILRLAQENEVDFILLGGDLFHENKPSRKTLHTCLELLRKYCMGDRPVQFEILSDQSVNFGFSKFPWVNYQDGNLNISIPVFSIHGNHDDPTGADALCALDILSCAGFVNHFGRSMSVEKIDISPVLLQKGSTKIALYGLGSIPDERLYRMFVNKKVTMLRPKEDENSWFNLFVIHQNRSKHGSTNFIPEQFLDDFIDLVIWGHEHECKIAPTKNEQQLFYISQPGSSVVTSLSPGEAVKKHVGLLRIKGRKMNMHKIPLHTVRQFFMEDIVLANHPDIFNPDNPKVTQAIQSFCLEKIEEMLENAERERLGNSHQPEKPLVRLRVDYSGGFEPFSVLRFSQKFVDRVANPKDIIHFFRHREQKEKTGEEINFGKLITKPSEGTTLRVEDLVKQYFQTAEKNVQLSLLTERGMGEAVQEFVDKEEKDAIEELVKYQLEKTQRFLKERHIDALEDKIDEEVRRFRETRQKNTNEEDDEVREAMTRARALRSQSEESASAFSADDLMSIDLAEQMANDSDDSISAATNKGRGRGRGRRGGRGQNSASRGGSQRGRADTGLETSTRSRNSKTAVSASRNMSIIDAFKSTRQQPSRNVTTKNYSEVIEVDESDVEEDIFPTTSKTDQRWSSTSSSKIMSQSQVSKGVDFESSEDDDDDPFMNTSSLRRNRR
thermal stability z-score [1]: -0.619
thermal stability z-score [2, 3]: 0.729
thermal stability z-score ([2]; arsenate co-treatment: none): 0.164

MRFAP1 (UniProt Q9Y605)
Sequence of UniProt Q9Y605 (Q9Y605 whole entry): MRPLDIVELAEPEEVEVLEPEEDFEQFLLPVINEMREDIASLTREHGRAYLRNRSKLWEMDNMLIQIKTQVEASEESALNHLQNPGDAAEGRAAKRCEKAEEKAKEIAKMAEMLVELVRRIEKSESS
thermal stability z-score [1]: -0.23
thermal stability z-score [2, 3]: 0.86
thermal stability z-score ([2]; arsenate co-treatment: none): -0.215

MRGBP (UniProt Q9NV56)
Sequence of UniProt Q9NV56 (Q9NV56 whole entry): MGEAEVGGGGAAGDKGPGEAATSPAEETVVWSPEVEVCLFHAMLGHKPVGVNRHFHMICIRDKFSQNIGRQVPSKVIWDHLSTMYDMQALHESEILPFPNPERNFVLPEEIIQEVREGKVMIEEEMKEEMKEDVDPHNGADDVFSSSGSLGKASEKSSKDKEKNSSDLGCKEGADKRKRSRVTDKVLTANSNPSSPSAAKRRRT
thermal stability z-score [1]: -0.45
thermal stability z-score [2, 3]: 0.386
thermal stability z-score ([2]; arsenate co-treatment: none): -0.212

MRI1 (UniProt Q9BV20)
Sequence of UniProt Q9BV20 (Q9BV20 whole entry): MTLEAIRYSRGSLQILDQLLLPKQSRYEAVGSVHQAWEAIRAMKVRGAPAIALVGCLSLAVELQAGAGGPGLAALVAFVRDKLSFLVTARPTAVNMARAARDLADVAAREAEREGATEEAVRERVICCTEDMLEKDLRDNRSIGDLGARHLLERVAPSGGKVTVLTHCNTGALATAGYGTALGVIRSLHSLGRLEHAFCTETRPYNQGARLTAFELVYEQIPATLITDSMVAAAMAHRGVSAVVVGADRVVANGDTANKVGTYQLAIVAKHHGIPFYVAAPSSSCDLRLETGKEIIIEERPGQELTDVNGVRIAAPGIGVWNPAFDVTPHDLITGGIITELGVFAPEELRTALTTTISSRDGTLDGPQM
thermal stability z-score [1]: -0.37
thermal stability z-score [2, 3]: 0.156
thermal stability z-score ([2]; arsenate co-treatment: none): 0.0639

MRM1 (UniProt Q6IN84)
Sequence of UniProt Q6IN84 (Q6IN84 whole entry): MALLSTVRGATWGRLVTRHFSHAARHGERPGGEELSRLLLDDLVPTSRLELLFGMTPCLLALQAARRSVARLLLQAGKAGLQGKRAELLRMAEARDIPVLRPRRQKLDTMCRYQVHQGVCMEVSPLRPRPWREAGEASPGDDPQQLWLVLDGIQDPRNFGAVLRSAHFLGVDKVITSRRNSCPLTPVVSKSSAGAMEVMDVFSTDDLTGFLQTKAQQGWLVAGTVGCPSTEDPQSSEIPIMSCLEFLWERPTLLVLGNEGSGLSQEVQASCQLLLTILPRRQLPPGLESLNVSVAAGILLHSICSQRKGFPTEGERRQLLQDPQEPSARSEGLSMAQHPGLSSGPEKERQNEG
thermal stability z-score [1]: -0.991
thermal stability z-score [2, 3]: -0.994
thermal stability z-score ([2]; arsenate co-treatment: none): -0.349

MRM3 (UniProt Q9HC36)
Sequence of UniProt Q9HC36 (Q9HC36 whole entry): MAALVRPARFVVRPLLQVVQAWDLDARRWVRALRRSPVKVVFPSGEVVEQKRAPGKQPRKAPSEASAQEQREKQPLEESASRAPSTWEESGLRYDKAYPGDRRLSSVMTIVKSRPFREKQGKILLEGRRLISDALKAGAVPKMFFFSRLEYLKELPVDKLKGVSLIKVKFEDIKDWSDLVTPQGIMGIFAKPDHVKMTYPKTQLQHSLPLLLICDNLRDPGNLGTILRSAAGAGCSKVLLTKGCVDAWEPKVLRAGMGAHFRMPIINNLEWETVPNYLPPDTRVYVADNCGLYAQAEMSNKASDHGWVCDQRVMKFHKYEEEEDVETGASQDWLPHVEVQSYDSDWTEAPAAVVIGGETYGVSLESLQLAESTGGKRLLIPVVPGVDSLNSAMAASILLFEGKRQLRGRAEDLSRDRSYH
thermal stability z-score [1]: -0.218
thermal stability z-score [2, 3]: -0.128
thermal stability z-score ([2]; arsenate co-treatment: none): -0.165

MRPL1 (UniProt Q9BYD6)
thermal stability z-score [1]: 0.374
thermal stability z-score [2, 3]: -0.253
thermal stability z-score ([2]; arsenate co-treatment: none): -0.245

MRPL2 (UniProt Q5T653)
thermal stability z-score [1]: 0.601
thermal stability z-score [2, 3]: 0.745
thermal stability z-score ([2]; arsenate co-treatment: none): 0.173

MRPL3 (UniProt P09001)
thermal stability z-score [1]: -0.132
thermal stability z-score [2, 3]: -0.851
thermal stability z-score ([2]; arsenate co-treatment: none): -0.0275

MRPL4 (UniProt Q9BYD3)
thermal stability z-score [1]: -0.138
thermal stability z-score [2, 3]: -0.319
thermal stability z-score ([2]; arsenate co-treatment: none): -0.59

MRPL9 (UniProt Q9BYD2)
thermal stability z-score [1]: 0.232
thermal stability z-score [2, 3]: -0.106
thermal stability z-score ([2]; arsenate co-treatment: none): 0.203

MRPL10 (UniProt Q7Z7H8)
thermal stability z-score [1]: 0.0461
thermal stability z-score [2, 3]: 0.127
thermal stability z-score ([2]; arsenate co-treatment: none): 0.224

MRPL11 (UniProt Q9Y3B7)
thermal stability z-score [1]: 0.0228
thermal stability z-score [2, 3]: -0.211
thermal stability z-score ([2]; arsenate co-treatment: none): 0.169

MRPL13 (UniProt Q9BYD1)
thermal stability z-score [1]: -0.201
thermal stability z-score [2, 3]: -0.175
thermal stability z-score ([2]; arsenate co-treatment: none): -0.451

MRPL14 (UniProt Q6P1L8)
thermal stability z-score [1]: 1.59
thermal stability z-score [2, 3]: -0.566
thermal stability z-score ([2]; arsenate co-treatment: none): 0.0684

MRPL15 (UniProt Q9P015)
thermal stability z-score [1]: -0.33
thermal stability z-score [2, 3]: -0.144
thermal stability z-score ([2]; arsenate co-treatment: none): -0.0219

MRPL16 (UniProt Q9NX20)
thermal stability z-score [1]: -0.974
thermal stability z-score [2, 3]: -0.269
thermal stability z-score ([2]; arsenate co-treatment: none): -0.373

MRPL17 (UniProt Q9NRX2)
thermal stability z-score [1]: -0.206
thermal stability z-score [2, 3]: 0.0551
thermal stability z-score ([2]; arsenate co-treatment: none): 0.00699

MRPL18 (UniProt Q9H0U6)
thermal stability z-score [1]: -0.799
thermal stability z-score [2, 3]: -0.339
thermal stability z-score ([2]; arsenate co-treatment: none): -0.0505

MRPL19 (UniProt P49406)
thermal stability z-score [1]: 0.274
thermal stability z-score [2, 3]: -0.287
thermal stability z-score ([2]; arsenate co-treatment: none): -0.00717

MRPL20 (UniProt Q9BYC9)
thermal stability z-score [1]: -0.00694
thermal stability z-score [2, 3]: 0.411
thermal stability z-score ([2]; arsenate co-treatment: none): 0.239

MRPL21 (UniProt Q7Z2W9)
thermal stability z-score [1]: 0.0405
thermal stability z-score [2, 3]: -0.754
thermal stability z-score ([2]; arsenate co-treatment: none): -0.591

MRPL22 (UniProt Q9NWU5)
thermal stability z-score [1]: 0.467
thermal stability z-score [2, 3]: 0.32
thermal stability z-score ([2]; arsenate co-treatment: none): 0.464

MRPL23 (UniProt Q16540)
thermal stability z-score [1]: 0.525
thermal stability z-score [2, 3]: 0.205
thermal stability z-score ([2]; arsenate co-treatment: none): 0.755

MRPL24 (UniProt Q96A35)
thermal stability z-score [1]: -0.261
thermal stability z-score [2, 3]: -0.411
thermal stability z-score ([2]; arsenate co-treatment: none): -0.311

MRPL27 (UniProt Q9P0M9)
thermal stability z-score [1]: -0.0764
thermal stability z-score [2, 3]: -0.0242
thermal stability z-score ([2]; arsenate co-treatment: none): 0.00566

MRPL28 (UniProt Q13084)
thermal stability z-score [1]: -0.154
thermal stability z-score [2, 3]: -0.527
thermal stability z-score ([2]; arsenate co-treatment: none): -0.172

MRPL30 (UniProt Q8TCC3)
thermal stability z-score [1]: 0.112
thermal stability z-score [2, 3]: -0.325
thermal stability z-score ([2]; arsenate co-treatment: none): 0.266

MRPL32 (UniProt Q9BYC8)
thermal stability z-score [1]: -0.401
thermal stability z-score [2, 3]: -0.0526
thermal stability z-score ([2]; arsenate co-treatment: none): 0.482

MRPL33 (UniProt O75394)
thermal stability z-score [1]: -0.812
thermal stability z-score [2, 3]: -0.539
thermal stability z-score ([2]; arsenate co-treatment: none): -0.723

MRPL35 (UniProt Q9NZE8)
thermal stability z-score [1]: 0.129
thermal stability z-score [2, 3]: -0.257
thermal stability z-score ([2]; arsenate co-treatment: none): -0.048

MRPL37 (UniProt Q9BZE1)
thermal stability z-score [1]: -0.0807
thermal stability z-score [2, 3]: -0.398
thermal stability z-score ([2]; arsenate co-treatment: none): -0.403

MRPL38 (UniProt Q96DV4)
thermal stability z-score [1]: 0.134
thermal stability z-score [2, 3]: -0.319
thermal stability z-score ([2]; arsenate co-treatment: none): -0.0312

MRPL39 (UniProt Q9NYK5)
thermal stability z-score [1]: 0.057
thermal stability z-score [2, 3]: -0.499
thermal stability z-score ([2]; arsenate co-treatment: none): -0.225

MRPL40 (UniProt Q9NQ50)
thermal stability z-score [1]: -0.0198
thermal stability z-score [2, 3]: 0.157
thermal stability z-score ([2]; arsenate co-treatment: none): 0.0972

MRPL41 (UniProt Q8IXM3)
thermal stability z-score [1]: 0.448
thermal stability z-score [2, 3]: -0.202
thermal stability z-score ([2]; arsenate co-treatment: none): 0.303

MRPL42 (UniProt Q9Y6G3)
thermal stability z-score [1]: -1.61
thermal stability z-score [2, 3]: -1.07
thermal stability z-score ([2]; arsenate co-treatment: none): -0.921

MRPL43 (UniProt Q8N983)
thermal stability z-score [1]: 0.166
thermal stability z-score [2, 3]: -0.191
thermal stability z-score ([2]; arsenate co-treatment: none): 0.245

MRPL44 (UniProt Q9H9J2)
thermal stability z-score [1]: -0.354
thermal stability z-score [2, 3]: -0.467
thermal stability z-score ([2]; arsenate co-treatment: none): -0.447

MRPL45 (UniProt Q9BRJ2)
thermal stability z-score [1]: 0.214
thermal stability z-score [2, 3]: -0.181
thermal stability z-score ([2]; arsenate co-treatment: none): 0.0671

MRPL46 (UniProt Q9H2W6)
thermal stability z-score [1]: -0.0514
thermal stability z-score [2, 3]: -0.218
thermal stability z-score ([2]; arsenate co-treatment: none): 0.1

MRPL47 (UniProt Q9HD33)
thermal stability z-score [1]: 0.268
thermal stability z-score [2, 3]: -0.428
thermal stability z-score ([2]; arsenate co-treatment: none): -0.0176

MRPL48 (UniProt Q96GC5)
thermal stability z-score [1]: 0.101
thermal stability z-score [2, 3]: -0.0867
thermal stability z-score ([2]; arsenate co-treatment: none): 0.198

MRPL49 (UniProt Q13405)
thermal stability z-score [1]: -0.254
thermal stability z-score [2, 3]: -0.298
thermal stability z-score ([2]; arsenate co-treatment: none): 0.49

MRPL50 (UniProt Q8N5N7)
thermal stability z-score [1]: 1.42
thermal stability z-score [2, 3]: 1.2
thermal stability z-score ([2]; arsenate co-treatment: none): 0.662

MRPL51 (UniProt Q4U2R6)
thermal stability z-score [1]: -0.0101
thermal stability z-score [2, 3]: -0.114
thermal stability z-score ([2]; arsenate co-treatment: none): 0.334

MRPL53 (UniProt Q96EL3)
thermal stability z-score [1]: 0.0397
thermal stability z-score [2, 3]: 0.75
thermal stability z-score ([2]; arsenate co-treatment: none): -0.432

MRPL54 (UniProt Q6P161)
thermal stability z-score [1]: 0.025
thermal stability z-score [2, 3]: -0.648
thermal stability z-score ([2]; arsenate co-treatment: none): 0.074

MRPL55 (UniProt Q7Z7F7)
thermal stability z-score [1]: -0.38
thermal stability z-score [2, 3]: 0.0563
thermal stability z-score ([2]; arsenate co-treatment: none): 0.0521

MRPL57 (UniProt Q9BQC6)
thermal stability z-score [1]: 0.671
thermal stability z-score [2, 3]: 0.281
thermal stability z-score ([2]; arsenate co-treatment: none): 0.104

MRPS2 (UniProt Q9Y399)
thermal stability z-score [1]: 0.591
thermal stability z-score [2, 3]: 0.15
thermal stability z-score ([2]; arsenate co-treatment: none): 0.188

MRPS5 (UniProt P82675)
thermal stability z-score [1]: 0.0198
thermal stability z-score [2, 3]: -0.158
thermal stability z-score ([2]; arsenate co-treatment: none): 0.0282

MRPS6 (UniProt P82932)
thermal stability z-score [1]: -0.516
thermal stability z-score [2, 3]: -0.216
thermal stability z-score ([2]; arsenate co-treatment: none): -0.13

MRPS7 (UniProt Q9Y2R9)
thermal stability z-score [1]: 0.102
thermal stability z-score [2, 3]: -1.12
thermal stability z-score ([2]; arsenate co-treatment: none): -0.496

MRPS9 (UniProt P82933)
thermal stability z-score [1]: 0.195
thermal stability z-score [2, 3]: 0.316
thermal stability z-score ([2]; arsenate co-treatment: none): 0.203
